{"source": "patent US20150352108A1", "about": "“AMINO-PYRIMIDINE COMPOUNDS AS INHIBITORS OF TBK1 AND/OR IKK EPSILON” (Alzheimer's Institute of America, priority 2009, published 2015)", "key": {"[1]": {"tested_on": "IP-10 production, human fibroblast-like synoviocytes (HFLS-RA)", "test": "Inhibition of IP-10 production by HFLS-RA cells induced with Poly(I:C)", "type": "cell-based", "conditions": "Poly(I:C) induction", "method": "(§1) HFLS cells (HFLS-RA) isolated from patients with rheumatoid arthritis were obtained from Cell Applications, Inc. (San Diego, Calif.). Cells were seeded in synoviocyte growth medium (Cell Applications, Inc., San Diego, Calif.) and allowed to grow overnight. The following day, media was replaced and cells were treated with varying concentrations of selected compounds according to Formula I (e.g., Example Compound 5) (0.1% final DMSO concentration). Two hours later, cells were induced with 50 µg/mL Poly(I:C) (Sigma-Aldrich, St. Louis, Mo.). Supernatants were collected 20 hours post-induction and used to monitor RANTES and IP-10 levels using DuoSet ELISA kits (Human CXCL10/IP-10 DuoSet & Human CCL5/RANTES DuoSet; R&D Systems, Inc., Minneapolis, Minn.)."}, "[2]": {"tested_on": "Poly(I:C)-induced innate/adaptive immune and IFNα/β-regulated genes, HFLS-RA cells", "test": "Genes modulated by IKKε/TBK1 inhibition in HFLS-RA cells (qRT-PCR arrays, Poly(I:C))", "type": "cell-based, human", "conditions": "500 nM pre-treatment", "method": "IKKε and TBK1 play important roles in modulating several innate/adaptive immune and interferon-regulated genes in response to bacterial and viral infections. To identify genes that are under the control of IKKε and TBK1 kinase activity HFLS-RA cells (Cell Applications, Inc., San Diego, Calif.) were pretreated with a compound according to Formula I (Example Compound 5) (0.5 uM), and then treated with the TLR3 agonist Poly(I:C). A focused RT-PCR array containing either 84 innate/adaptive immune-regulated or 84 IFNα/β-regulated genes were probed by qRT-PCR using mRNA isolated from the treated cells, as well as from untreated control cells, according to the following protocol.\nHFLS cells isolated from patients with RA were obtained from Cell Applications, Inc. (HFLS-RA, Cell Applications, Inc., San Diego, Calif.). Cells were seeded in synoviocyte growth medium (Cell Applications, Inc., San Diego, Calif.) and allowed to grow overnight. The following day, media was replaced and cells were treated with 500 nM of Example Compound 5 (0.1% final DMSO concentration). Two hours later, cells were induced with 50 µg/mL Poly(I:C) (Sigma-Aldrich, St. Louis, Mo.). […] RNA was quantitated using Quant-iT™ RiboGreen® RNA Assay Kit (Invitrogen, Inc., Carlsbad, Calif.). […]"}, "[3]": {"molecular_target": "T1, TBK1 (Homo sapiens, UniProt Q9UHD2)", "T1 construct": "His-tag; made in house; host or cells: Sf9 insect cells", "T1 sequence (Q9UHD2 1-729)": "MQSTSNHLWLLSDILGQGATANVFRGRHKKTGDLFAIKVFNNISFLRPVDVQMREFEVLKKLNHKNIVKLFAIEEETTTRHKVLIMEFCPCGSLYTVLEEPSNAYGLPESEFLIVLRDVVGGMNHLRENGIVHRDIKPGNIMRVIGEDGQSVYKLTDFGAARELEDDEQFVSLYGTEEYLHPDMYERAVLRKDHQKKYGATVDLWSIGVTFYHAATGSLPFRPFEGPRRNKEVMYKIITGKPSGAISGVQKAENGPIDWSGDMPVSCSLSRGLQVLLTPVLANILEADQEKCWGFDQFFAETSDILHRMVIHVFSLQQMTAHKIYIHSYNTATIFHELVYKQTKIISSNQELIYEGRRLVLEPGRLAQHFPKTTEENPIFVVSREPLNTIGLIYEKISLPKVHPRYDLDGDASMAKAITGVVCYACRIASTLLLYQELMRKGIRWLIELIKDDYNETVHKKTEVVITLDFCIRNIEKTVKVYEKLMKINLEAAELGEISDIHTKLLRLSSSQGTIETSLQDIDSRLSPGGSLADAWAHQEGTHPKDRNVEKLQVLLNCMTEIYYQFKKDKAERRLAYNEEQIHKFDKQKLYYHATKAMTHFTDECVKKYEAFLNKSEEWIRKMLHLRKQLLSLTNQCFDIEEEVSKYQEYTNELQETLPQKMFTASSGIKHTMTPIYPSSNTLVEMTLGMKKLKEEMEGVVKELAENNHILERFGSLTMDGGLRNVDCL", "test": "In-vitro TBK1 kinase assay ([γ33]ATP filter-plate)", "type": "biochemical", "conditions": "text bins; read-out: IC50 for inhibition of the kinase activity of TBK1", "in_short": "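Phosphorylation of casein or myelin basic protein was counted by P-81 filter capture after 30-45 min reactions stopped with phosphoric acid, with counts normalized to DMSO after background subtraction. ATP was twice Km: 60 μM for TBK1 and 32 μM for IKKε, plus [γ33]ATP. Sf9-expressed His-tag enzymes were used at normal/sensitized levels of 0.1/0.02 μg/ml (TBK1) and 0.1/0.015 μg/ml (IKKε).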"}, "[4]": {"tested_on": "IFN-β production", "test": "Inhibition of IFN-β production (similar assay to HFLS-RA RANTES/IP-10)", "type": "cell-based", "conditions": "Homo sapiens", "method": "as §1\nUsing a similar assay Compound 5 was also found to inhibit production of IFN-β with an IC50 of about 40 nM"}}, "data": [{"smiles": "N#Cc1cc(-c2ccnc(Nc3ccc(N4CCOCC4)cc3)n2)ccc1OC1CCOCC1", "note": "[Example 5, 5-(2-{[4-(Morpholin-4-yl)phenyl]amino}pyrimidin-4-yl)-2-(tetrahydro-2H-pyran-4-yloxy)benzaonitrile]", "values": [{"measurement": "IC50", "setting": "[1]", "value": "~60", "unit": "nM"}, {"measurement": "induction of genes normally induced by Poly(I:C) treatment", "setting": "[2]", "value": "potently inhibited"}, {"measurement": "IC50", "setting": "[3]", "value": "< 10", "unit": "nM"}, {"measurement": "IC50", "setting": "[4]", "value": "~40", "unit": "nM"}]}]}
